# According to patent US20180110754A1, “CENICRIVIROC FOR THE TREATMENT OF FIBROSIS” (Tobira Therapeutics, Inc., priority 2015, published 2018):
# pIC50: −log10 of the molar value.
# Assays:
# CCR2 = biological target: T1, CCR2 (Homo sapiens, UniProt P41597); assay: MCP-1-induced CCR2 internalization / CCR2 receptor occupancy on monocytes (flow cytometry); assay type: cell-based
# T1 construct: endogenous in cells; host or cells: monocytes within PBMCs from HIV+ and HIV- subjects
# T1 sequence (P41597 1-360 isoform P41597-2): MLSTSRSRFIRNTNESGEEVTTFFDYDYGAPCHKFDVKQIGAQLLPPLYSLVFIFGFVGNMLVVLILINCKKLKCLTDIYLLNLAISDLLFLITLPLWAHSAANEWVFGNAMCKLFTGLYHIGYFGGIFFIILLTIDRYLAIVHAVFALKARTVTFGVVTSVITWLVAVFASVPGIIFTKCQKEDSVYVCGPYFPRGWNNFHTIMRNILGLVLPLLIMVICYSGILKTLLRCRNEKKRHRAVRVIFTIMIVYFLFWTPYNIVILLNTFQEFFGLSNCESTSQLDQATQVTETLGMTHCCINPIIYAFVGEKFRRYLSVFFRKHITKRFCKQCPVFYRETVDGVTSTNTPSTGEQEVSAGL
# Procedure: (§1) The capacity of each drug to inhibit CCR5 or CCR2 internalization was evaluated. Cell-surface expression of CCR5 and CCR2 was assessed by flow cytometry, and fluorescence values were converted into molecules of equivalent soluble fluorescence (MESF).
# [1] = tested on: thioglycollate-induced peritonitis (monocyte/macrophage and leukocyte recruitment); assay: Mouse thioglycollate-induced peritonitis model: peritoneal lavage cell counts, body weight; assay type: in vivo
# Procedure: Summary: The mouse thioglycollate induced peritonitis model is a commonly used preclinical model to assess the recruitment of […] cells and to assess the activation of macrophages.
# Dexamethasone was used as a positive control in this experiment as it is a corticosteroid known to reduce inflammation in a variety of animal models. Murine inflammation models indicate that the effective dose range for dexamethasone, when administered orally, is 0.3 to 3 mg/kg QD. On this basis, an intermediate dose of 1 mg/kg was chosen for this particular study.
# The lavage was repeated with a second injection of 2.5 mL via the initial puncture site and the samples were pooled for each animal.
# The lavage fluid was placed on wet ice pending processing for total and differential cell counts using the Advia analyzer. Following the lavage collection, a blood sample (0.7 mL) was collected from each mouse by intracardiac puncture or from the vena cava (collection time was recorded). 0.5 mL of blood was placed in an EDTA tube, transferred to clinical pathology and analyzed for differential cell counts using the Advia analyzer. 0.2 mL of blood was placed in a K2EDTA tube and processed to plasma. The plasma was collected by centrifugation (3000 rpm for 10 minutes at 4° C.) and placed on dry ice. […] After blood collection, the animals were then exsanguinated by sectioning of the abdominal aorta.
# Statistical Analysis: One-way ANOVA with post-hoc Dunnett's statistical analysis was performed on differential cell counts obtained from lavage and blood samples. The analysis was performed in comparison to Group 2.
# CCR5 [2] = biological target: T2, CCR5 (Homo sapiens, UniProt P51681); assay: Inhibition of chemokine binding to CCR5-expressing CHO cells
# T2 sequence (P51681 whole entry): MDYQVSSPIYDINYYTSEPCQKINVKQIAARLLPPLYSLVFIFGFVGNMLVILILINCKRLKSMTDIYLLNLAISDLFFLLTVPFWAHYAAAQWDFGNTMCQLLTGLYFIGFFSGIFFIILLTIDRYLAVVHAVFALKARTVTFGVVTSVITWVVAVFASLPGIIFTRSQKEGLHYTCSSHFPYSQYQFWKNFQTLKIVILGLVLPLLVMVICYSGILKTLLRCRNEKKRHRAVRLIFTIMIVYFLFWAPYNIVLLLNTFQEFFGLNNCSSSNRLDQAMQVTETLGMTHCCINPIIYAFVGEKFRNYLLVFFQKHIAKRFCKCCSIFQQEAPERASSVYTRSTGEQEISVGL
# [3] = Solubility of cenicriviroc mesylate in solvents and aqueous solution; assay type: physicochemical
# Excerpt: In one embodiment, the acid addition salt of cenicriviroc is cenicriviroc mesylate, e.g., (5)-8-[4-(2-Butoxyethoxy)phenyl]-1-isobutyl-N-(4-{[(1-propyl-1H-imidazol-5-yl)methyl]sulfinyl}phenyl)-1,2,3,4-tetrahydro-1-benzazocine-5-carboxamide monomethanesulfonoate. In one embodiment, the cenicriviroc mesylate is a crystalline material, such as a pale greenish-yellow crystalline powder.
# CCR5 [4] = biological target: T2, CCR5; assay: RANTES-induced CCR5 internalization / CCR5 receptor occupancy in PBMCs (flow cytometry); assay type: cell-based
# Procedure: as §1
# HIV-1 BaL [5] = assay: Extracellular virus (viral RNA, p24) in culture fluids of PM-1 cells exposed to HIV-1 BaL; assay type: cell-based; details: 4 hrs post-infection, CVC 20 nM, MVC 50 nM
# Excerpt: Cells. PM-1 cells that express CD4, CCR5, and CXCR4 were maintained in RPMI-1640 medium containing 10% fetal bovine serum (R10 medium) at 37C, 5% CO2. 293T cells used for transfection were maintained in DMEM at 10% FBS, L-glutamine, and antibiotics (D10 medium) at 37C, 5% CO2. Virus Stocks. HIV-1 BaL virus was produced by transfecting 293T cells with the plasmid pWT/BaL. Lipofectamine 2000 was used as a transfection agent. Culture supernatants were collected at 48 hrs post-transfection, filtered through a 0.45 μm pore filter, and treated with 50 units of benzonase per ml of virus stock for 20 minutes at 37C to remove contaminating plasmid DNA. Virus stocks were frozen at −80C to halt benzonase activity. Benzonase-treated virus stocks were propagated in cord blood mononuclear cells (CBMCs). CBMCs were stimulated for 72 h with phytohemagluttinin (PHA-M) in R10 medium prior to infection with HIV-1 BaL. The viral amplification culture was subsequently grown in R10 supplemented with interleukin 2 (IL-2) and incubated at 37C, 5% CO2.
# Both drugs were incubated with PM-1 cells for 1 hr at 37 C prior to the addition of virus. 500 ng of p24 antigen of HIV-1 BaL were incubated per 5×10^5 cells in 1 ml of R10 media. Virus only controls, described as “no cell” in the text, were used to measure viral decay. Viral adsorption was measured in the no-drug controls, whereby 500 ng of p24 Ag of HIV-1 Bal were added per 5×10^5 PM-1 cells that were pre-incubated at 37 C for 1 hr in the absence of drug treatment. Each drug treatment and control was performed in duplicate. Viral RNA was extracted from 140 μl of supernatant fluid using the QIAamp Viral RNA mini kit according to manufacturer's instructions. Samples were stored at −80 C until analysis. Supernatant viral loads were measured using quantitative real-time reverse transcription PCR (qRT-PCR) with the primers US1SSF (5′-[…]-3′), US1SSR (5′-[…]-3′) and US1SS probe (5′-(FAM) […]) and the Invitrogen qRT-PCR Supermix Kit. Cycling parameters were: 50° C. for 15 minutes, 95° C. for 10 minutes, followed by 50 cycles of 95° C. for 15 seconds, and 60° C. for 1 minute. All values are the result of replicate testing over 2 independent experiments. RNA copy number was quantified by use of 10-fold serial dilutions of pBaL/wt to generate standard curves for each assay and calibrated against samples with known copy numbers from previous studies.
# HIV-1 BaL [6] = assay: Intracellular strong-stop HIV DNA in PM-1 cells infected with HIV-1 BaL; assay type: cell-based; details: 4 hrs, CVC 20 nM, MVC 50 nM
# Procedure: Both drugs were incubated with PM-1 cells for 1 hr at 37 C prior to the addition of virus. 500 ng of p24 antigen of HIV-1 BaL were incubated per 5×10^5 cells in 1 ml of R10 media. Virus only controls, described as “no cell” in the text, were used to measure viral decay. Viral adsorption was measured in the no-drug controls, whereby 500 ng of p24 Ag of HIV-1 Bal were added per 5×10^5 PM-1 cells that were pre-incubated at 37 C for 1 hr in the absence of drug treatment. Each drug treatment and control was performed in duplicate. Viral RNA was extracted from 140 μl of supernatant fluid using the QIAamp Viral RNA mini kit according to manufacturer's instructions. Samples were stored at −80 C until analysis. Supernatant viral loads were measured using quantitative real-time reverse transcription PCR (qRT-PCR) with the primers US1SSF (5′-[…]-3′), US1SSR (5′-[…]-3′) and US1SS probe (5′-(FAM) […]) and the Invitrogen qRT-PCR Supermix Kit. […] RNA copy number was quantified by use of 10-fold serial dilutions of pBaL/wt to generate standard curves for each assay and calibrated against samples with known copy numbers from previous studies.
# Intracellular DNA qPCR. Total DNA was extracted, quantified, and stored at −80 C. Intracellular strong-stop DNA levels were quantified with the US1SS primer/probe set described above. […]
compound,measurement,setting,value
"CSc1ccc(C(=O)N[C@@H]2CCCC[C@@H]2NC(=O)CNC(=O)c2cc(C(F)(F)F)ccc2NC(=O)NC(C)C)cc1 [BMS-22, reference compound]",Concentration required to reach >80% CCR2 receptor occupancy (average),CCR2,18 nM
same,CCR2 cell-surface expression,CCR2; in the absence of MCP-1,slightly increased CCR2 cell-surface expression
"C[C@@H]1C[C@H]2[C@@H]3CCC4=CC(=O)C=C[C@]4(C)[C@@]3(F)[C@@H](O)C[C@]2(C)[C@@]1(O)C(=O)CO [Dexamethasone, dexamethasone, reference compound]",Decrease in monocytes in peritoneal lavage vs thioglycollate control,"[1]; Group 7, 1 mg/kg oral",38.1%
same,Decrease in total leukocyte counts in peritoneal lavage vs thioglycollate control,"[1]; Group 7, 1 mg/kg oral",26.6%
same,"Body weights, Days 1 to 6","[1]; mouse, in vivo",decreased slightly
CCCCOCCOc1ccc(-c2ccc3c(c2)C=C(C(=O)Nc2ccc(SC)cc2)CCCN3CC(C)C)cc1 [M-II],"IC50, inhibition of RANTES binding to CCR5-expressing cells",CCR5 [2]; CHO cells,no effect on binding of RANTES
CCCCOCCOc1ccc(-c2ccc3c(c2)C=C(C(=O)Nc2ccc(S(=O)(=O)Cc4cncn4CCC)cc2)CCCN3CC(C)C)cc1 [M-I],IC50 relative to the IC50 of CVC (RANTES binding to CCR5),CCR5 [2],approximately 2 fold
same,pIC50,"CCR5 [2]; CHO cells, read-out: IC50, inhibition of RANTES binding to CCR5-expressing cells",8.19
"(5)-8-[4-(2-Butoxyethoxy)phenyl]-1-isobutyl-N-(4-{[(1-propyl-1H-imidazol-5-yl)methyl]sulfinyl}phenyl)-1,2,3,4-tetrahydro-1-benzazocine-5-carboxamide monomethanesulfonoate [cenicriviroc mesylate]",Solubility,[3]; 99.5% ethanol,sparingly soluble
same,Solubility,"[3]; acetonitrile, 1-octanol, tetrahydrofuran",slightly soluble
same,Solubility,[3]; ethyl acetate and diethylether,practically insoluble
same,Solubility,"[3]; glacial acetic acid, methanol, benzyl alcohol, dimethylsulfoxide, N,N-dimethylformamide",freely soluble
same,Solubility in aqueous solution,[3]; pH 1 to 2,freely soluble
same,Solubility in aqueous solution,[3]; pH 3,sparingly soluble
same,Solubility in aqueous solution,[3]; pH 4 to 13 and in water,practically insoluble
same,Solubility,[3]; pyridine and acetic anhydride,soluble
"Maraviroc [MVC, reference compound]",CCR5 receptor occupancy at saturation,CCR5 [4]; CD4+ T cells,~86%
same,Effective concentration at which saturation of CCR5 was reached,CCR5 [4]; CD4+ T cells,12.5 nM
same,CCR5 receptor occupancy at saturation,CCR5 [4]; CD8+ T cells,~87%
same,Effective concentration at which saturation of CCR5 was reached,CCR5 [4]; CD8+ T cells,12.5 nM
same,Cell-surface expression of CCR5,CCR5 [4]; in the absence of RANTES,increased cell-surface expression of CCR5
same,p24 antigen level in culture fluids,HIV-1 BaL [5]; baseline 506 ng/ml,520 ng/mL
same,Viral RNA in culture fluids,HIV-1 BaL [5]; baseline 1.19×10^10,1.67×10^10 copies/ml
same,Relative intracellular strong-stop HIV DNA level compared to no drug control,HIV-1 BaL [6],0.02
